The text below walks through data of ChEMBL document CHEMBL1151577, “The inhibition of C5a receptor binding by analogs of L-156,602, a cyclic hexadepsipeptide antibiotic” (Bioorg Med Chem Lett, 1992).

The term IC50 denotes the concentration that inhibits the measured activity by half. Low values mean inhibition by little substance, high ones a need for much substance. The term EC50 denotes the concentration needed to bring the measured effect to its halfway point. Read a high EC50 as lower potency in that assay.

Assay [1] addresses T1, C5a anaphylatoxin chemotactic receptor 1 (Homo sapiens, UniProt P21730).
T1 sequence (P21730 whole entry): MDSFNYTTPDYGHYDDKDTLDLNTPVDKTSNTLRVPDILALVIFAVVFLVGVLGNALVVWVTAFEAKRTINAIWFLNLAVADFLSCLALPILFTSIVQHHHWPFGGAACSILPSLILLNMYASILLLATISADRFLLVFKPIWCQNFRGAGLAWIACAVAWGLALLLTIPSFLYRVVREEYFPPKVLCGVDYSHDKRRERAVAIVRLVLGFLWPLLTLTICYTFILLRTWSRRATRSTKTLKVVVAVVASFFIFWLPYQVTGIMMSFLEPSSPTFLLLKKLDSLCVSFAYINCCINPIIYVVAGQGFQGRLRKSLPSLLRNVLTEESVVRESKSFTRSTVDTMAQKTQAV
Nature of the assay: Inhibitory activity against purified binding C5a anaphylatoxin chemotactic receptor.

For assay [2], the target named is T1, C5a anaphylatoxin chemotactic receptor 1. Nature of the assay: Inhibitory activity for C5a anaphylatoxin chemotactic receptor binding using radiolabeled C5a receptor on neutrophil membranes (~2.0 uM).
For assay [3] the target is unchanged. Nature of the assay: Inhibitory activity against radiolabeled C5a receptor on neutrophil membranes expressing C5a anaphylatoxin chemotactic receptor.
Assay [4] has as its target T2, C5a anaphylatoxin chemotactic receptor 1 (Homo sapiens) (UniProt P21730).
T2 sequence (whole entry): T1 sequence (P21730 whole entry)
Nature of the assay: Compound was evaluated for inhibition of radiolabeled C5a binding to its membrane C5a anaphylatoxin chemotactic receptor.

For assay [5], the target named is T2, C5a anaphylatoxin chemotactic receptor 1 (Homo sapiens). Nature of the assay: Nonspecific degranulation of polymorho neutrophils as measured by myeloperoxidase (MPO) release in a whole functional cell assay.
The next assay is filed under the species Homo sapiens. Nature of the assay: Degranulation of polymorho neutrophils as measured by myeloperoxidase (MPO) release in a whole functional cell assay.

In brackets after ≈: the same amount, converted by molar mass.

Consider `CC[C@H](C)C[C@H]1CC[C@](O)([C@](C)(O)C(=O)N[C@@H]2C(=O)N3NCCC[C@@H]3C(=O)N(O)[C@@H](C)C(=O)NCC(=O)N3NCCC[C@H]3C(=O)N(O)[C@H](C)C(=O)O[C@H]2C(C)C)O[C@@H]1C`, for which the IC50 is 5.95 µM in assay [1], 2.02 µM in assay [2] and 5.95 µM in assay [3]. For the same molecule, the Activity in assay [4] is 1.8 µg/mL. The molecule also returned a Concentration causing nonspecific degranulation (MPO release) in assay [5] of 0.27 µg/mL. Moreover, the concentration giving a half-maximal response (EC50) in the assay listed under Homo sapiens came to 0.28 µg/mL (≈ 0.333 µM).
